For data set [1], the system named is A2780. Put plainly: Cytotoxicity, 72 h exposure, cisplatin-sensitive ovarian cancer cells. The data set is classed as cell-based, human. As to conditions: A2780, 72 h exposure.
For data set [2], the system named is A2780cisR. The data set is described as follows: Cytotoxicity, 72 h exposure, cisplatin-resistant ovarian cancer cells. It counts as cell-based, human.
Data set [3] relates to MCF-7. The data set is described as follows: Cytotoxicity, 72 h exposure, breast carcinoma. The data set is classed as cell-based, human. Conditions: MCF-7, 72 h exposure.
The test system of data set [4] is A549. Put plainly: Cytotoxicity, 72 h exposure, lung carcinoma. The data set is classed as cell-based, human. Conditions: A549, 72 h exposure.
Data set [5] has as its system HCT-15. The data set is described as follows: Cytotoxicity, 72 h exposure, colon carcinoma. It counts as cell-based, human. As to conditions: HCT-15, 72 h exposure.
Data set [6] concerns PC3. Put plainly: Cytotoxicity, 72 h exposure, prostate carcinoma. It counts as cell-based, human. Conditions: PC3, 72 h exposure.
The subject of data set [7] is A498. The data set is described as follows: Cytotoxicity, 72 h exposure, kidney carcinoma. The data set is classed as cell-based, human. Conditions: A498, 72 h exposure.
For data set [8], the system named is BxPC3. The data set is described as follows: Cytotoxicity, 72 h exposure, pancreatic carcinoma. The data set is classed as cell-based, human. Conditions: BxPC3, 72 h exposure.
For data set [9], the system named is A375. The data set is described as follows: Cytotoxicity, 72 h exposure, melanoma. It counts as cell-based, human. As to conditions: A375, 72 h exposure.
Data set [10] concerns cancer cell lines (panel). The data set is described as follows: Cytotoxicity averaged or compared over the cancer cell line panel. The data set is classed as cell-based, human. As to conditions: for IC50: read-out: average IC50.
Data set [11] deals with HDAC activity in MCF-7 cells. As to conditions: free ligand; reported values, no reference given; cited from earlier work.
The mark [12] stands for this setting: average over the seven cancer cell lines.
[13] abbreviates: average over five cancer cell lines.

Where two headings read alike, the source gives them in different places.

As a reminder, the IC50 is the concentration that gives 50% inhibition. Consider `O=C1[O][Pt]2([NH][C@@H]3CCCC[C@H]3[NH]2)[O]C1=O` [oxaliplatin], for which the IC50 in [1] turned out to be 0.52 ± 0.27 µM; in [2], 4.2 ± 1.6 µM; in [3], 3.36 ± 0.2 µM; in [4], 1.46 ± 0.31 µM; in [5] it was 1.15 ± 0.43 µM; in [6], 5.24 ± 0.86 µM. Also, the IC50 in data set [7] turned out to be 7.94 ± 1.04 µM; in [8], 4.15 ± 0.93 µM; in data set [9] it was 6.3 ± 1.11 µM; in [10] (setting [12]), 4.2 µM.
For the compound `N.N.[Cl-].[Cl-].[OH-].[OH-].[Pt+4]` [IX, ctc-[Pt(NH3)2(OH)2Cl2]], the IC50 was 11.5 ± 3.71 µM in data set [3]; 22.5 ± 4.54 µM in data set [4]; 15.3 ± 3.23 µM in [5]; 2.98 ± 1.35 µM in [6]; 22 ± 0.85 µM in data set [7]; 6.23 ± 1.47 µM in data set [8]. For the same compound, the IC50 in [9] worked out at 1.93 ± 0.75 µM; in [10] (setting [13]), 7 µM.
In the case of `CCCC(CCC)C(=O)O` [VPA, valproate], the “cytotoxic IC50 of uncoordinated HDAC inhibitor ligands” value in [10] (tested cancer cell lines) is recorded as “millimolar range”. The “IC50 of extracellular ligand for cellular HDAC activity” value in data set [11] is “mM range”.
[Pt(DACH)(OH)2(ox)]: the IC50 in [3] was found to be 19.9 ± 1.41 µM; in data set [4], 26.1 ± 2.89 µM; in [5], 18.9 ± 3.18 µM; in data set [6], 5.85 ± 1.08 µM; in data set [7] it was 24.4 ± 5.35 µM; in data set [8], 14.3 ± 2.09 µM. Also, the 50% inhibitory concentration (IC50) in data set [9] came out at 6.85 ± 1.55 µM; in data set [10] (setting [13]), 13.2 µM.
`N.N.[Cl][Pt][Cl]` [cisplatin]: the concentration for half-maximal inhibition (IC50) worked out at 2.8 ± 0.2 µM in data set [1]; 13.8 ± 0.2 µM in data set [2]; 17.4 ± 0.2 µM in data set [3]; 8.35 ± 0.87 µM in data set [4]; 11.3 ± 1.06 µM in data set [5]; 2.25 ± 0.82 µM in [6]. Besides, the IC50 in data set [7] is 17.5 ± 1.21 µM; in data set [8], 11.4 ± 1.14 µM; in [9], 4.03 ± 0.95 µM; in data set [10] (setting [12]) it was 10.3 µM; in [10] (over the nine cell lines), 9.9 µM.
